Data on 44 compounds can be found in patent US20240217966A1, “PHARMACEUTICAL COMPOSITION CONTAINING GLP-1 RECEPTOR AGONIST HAVING FUSED RING” (Shionogi & Co., Ltd., priority 2021, published 2024).

The term Emax denotes the maximal effect, on the per cent scale that the assay sets. As usually defined, the EC50 is the concentration at which the effect is half-maximal. Low values mean an effect from little substance, high ones a need for much substance.

The assay has as its target T1, Human GLP-1 receptor (Homo sapiens, UniProt P43220).
T1 construct: expressed in transfected cells
Description: Measurement of GLP-1 receptor agonist activity (cAMP assay). Type of assay: cell-based. The conditions noted are these: cAMP increase in GLP-1 R/CHO-K1 cells, 2 nM human GLP-1 (7-36) = 100%, DMSO only = 0%; for Emax: CHO-K1, maximum effect, read-out: Emax. Summed up: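 hGLP-1R/CHO-K1 cells in HBSS with 0.1% BSA, 20 mM HEPES, 0.1 mM IBMX and 0.2 mM RO20-1724 exposed to compound plus forskolin (400 μM stock) for 1 h at 37 °C. Intracellular cAMP read by HTRF (cAMP-d2/anti-cAMP cryptate, 1 h at room temperature).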

T1 sequence (P43220 24-463): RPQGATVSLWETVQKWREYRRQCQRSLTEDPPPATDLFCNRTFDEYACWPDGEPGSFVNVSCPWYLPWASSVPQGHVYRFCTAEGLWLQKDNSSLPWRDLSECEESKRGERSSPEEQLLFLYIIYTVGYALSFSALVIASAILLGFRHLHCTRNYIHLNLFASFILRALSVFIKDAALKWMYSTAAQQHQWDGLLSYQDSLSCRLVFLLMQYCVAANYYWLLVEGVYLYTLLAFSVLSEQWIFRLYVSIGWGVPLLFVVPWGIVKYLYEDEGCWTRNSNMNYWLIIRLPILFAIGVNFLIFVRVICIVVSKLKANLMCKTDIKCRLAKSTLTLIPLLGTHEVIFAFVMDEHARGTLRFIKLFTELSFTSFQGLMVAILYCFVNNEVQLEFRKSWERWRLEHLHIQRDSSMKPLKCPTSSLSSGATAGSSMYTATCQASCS

Take `C[C@H]1c2nc(OCc3ccc(Cl)cc3Cl)c(C(F)(F)F)cc2CCN1Cc1nc2ccc(C(=O)O)c(F)c2n1C[C@@H]1CCO1` [Compound I-243]: the Emax came to 111% and the EC50 was determined as 55.6 pM.

As for `C[C@H]1c2nc(OCc3ccc(Cl)cc3Cl)c(C(F)(F)F)cc2CCN1Cc1nc2c(F)cc(C(=O)O)cc2n1C[C@@H]1CCO1` [Compound I-244], the Emax was 123% and a half-maximal response (EC50) required 39.4 pM.

As for `C[C@H]1c2nc(OCc3cc(F)c(Cl)cc3F)c(C(F)(F)F)cc2CCN1Cc1nc2ccc(C(=O)O)c(F)c2n1C[C@@H]1CCO1` [Compound I-245], the Emax was 109% and the EC50 amounted to 60.5 pM.

As to `C[C@H]1c2nc(OCc3cc(F)c(Cl)cc3F)c(C(F)(F)F)cc2CCN1Cc1nc2c(F)cc(C(=O)O)cc2n1C[C@@H]1CCO1` [Compound I-246], the Emax stood at 120% and the EC50 came out at 26.4 pM.

Take `C[C@H]1c2nc(OCc3ccc(Cl)cn3)c(C(F)(F)F)cc2CCN1Cc1nc2ccc(C(=O)O)cc2n1C[C@@H]1CCO1` [Compound I-247]: the Emax is 121% and the response was half-maximal at 351 pM (EC50).

As for `Cc1csc(COc2nc3c(cc2C(F)(F)F)CCN(Cc2nc4ccc(C(=O)O)cc4n2C[C@@H]2CCO2)[C@H]3C)n1` [Compound I-248], the Emax came to 124% and the response was half-maximal at 902 pM (EC50).

In the case of `C[C@H]1c2nc(OCc3ccc(Cl)cc3)c(C(F)(F)F)cc2CCN1Cc1nc2ccc(C(=O)O)cc2n1C[C@@H]1CCO1` [Compound I-249], the Emax was determined as 145% and the EC50 came to 130 pM.

Take `Cc1ccc(COc2nc3c(cc2C(F)(F)F)CCN(Cc2nc4ccc(C(=O)O)cc4n2C[C@@H]2CCO2)[C@H]3C)cc1` [Compound I-250]: the Emax was determined as 121% and a half-maximal effect (EC50) was put at 164 pM.

As for `C[C@H]1c2nc(OCc3ccc(C4CC4)cc3)c(C(F)(F)F)cc2CCN1Cc1nc2ccc(C(=O)O)cc2n1C[C@@H]1CCO1` [Compound I-251], the Emax worked out at 120% and it took 807 pM to reach a half-maximal effect (EC50).

Turning to `COc1cc(Cl)ccc1COc1nc2c(cc1C(F)(F)F)CCN(Cc1nc3ccc(C(=O)O)cc3n1C[C@@H]1CCO1)[C@H]2C` [Compound I-252], the Emax worked out at 125% and the EC50 was found to be 79.8 pM.

Turning to `C[C@H]1c2nc(OCc3ccccc3Cl)c(C(F)(F)F)cc2CCN1Cc1nc2ccc(C(=O)O)cc2n1C[C@@H]1CCO1` [Compound I-253], the Emax worked out at 119% and the EC50 amounted to 366 pM.

In the case of `C[C@H]1c2nc(OCc3ccc(F)cc3F)c(C(F)(F)F)cc2CCN1Cc1nc2ccc(C(=O)O)cc2n1C[C@@H]1CCO1` [Compound I-254], the Emax amounted to 126% and a half-maximal effect (EC50) was put at 177 pM.

For the compound `C[C@H]1c2nc(OCc3ccc(Cl)cc3Cl)c(C(F)(F)F)cc2CCN1Cc1nc2ccc(C(=O)O)cc2n1C[C@@H]1CCO1` [Compound I-255], the Emax was 122% and the EC50 came out at 102 pM.

Regarding `C[C@H]1c2nc(OCc3ccc(OC(F)F)cc3F)c(C(F)(F)F)cc2CCN1Cc1nc2ccc(C(=O)O)cc2n1C[C@@H]1CCO1` [Compound I-256], the Emax came to 119% and a half-maximal response (EC50) required 389 pM.

With `C[C@H]1c2nc(OCc3cc(F)c(Cl)cc3F)c(C(F)(F)F)cc2CCN1Cc1nc2ccc(C(=O)O)cc2n1C[C@@H]1CCO1` [Compound I-257], the Emax amounted to 115% and the EC50 came to 74.7 pM.

Regarding `C[C@H]1c2nc(OCc3ccc(C#N)cc3F)c(C(F)(F)F)cc2CCN1Cc1nc2ccc(C(=O)O)cc2n1C[C@@H]1CCO1` [Compound I-258], the Emax was 107% and it took 91.1 pM to reach a half-maximal effect (EC50).

In the case of `C[C@H]1c2nc(OCc3c(F)cc(Cl)cc3F)c(C(F)(F)F)cc2CCN1Cc1nc2ccc(C(=O)O)cc2n1C[C@@H]1CCO1` [Compound I-259], the Emax came out at 134% and the midpoint of the response, the EC50, lay at 104 pM.

As to `C[C@H]1c2nc(OCc3c(F)cc(F)cc3F)c(C(F)(F)F)cc2CCN1Cc1nc2ccc(C(=O)O)cc2n1C[C@@H]1CCO1` [Compound I-260], the Emax came out at 115% and the EC50 is 128 pM.

Take `C[C@H]1c2cc(OCc3ccc(Cl)cc3F)c(C(F)F)cc2CCN1Cc1nc2ccc(C(=O)O)cc2n1C[C@@H]1CCO1` [Compound I-261]: the Emax came to 105% and the EC50 was found to be 1270 pM.

Turning to `COc1ccc(COc2nc3c(cc2C(F)(F)F)CCN(Cc2nc4ccc(C(=O)O)cc4n2C[C@@H]2CCO2)C3)cc1` [Compound I-262], the Emax amounted to 109% and the EC50 was 4470 pM.

With `O=C(O)c1ccc2nc(CN3CCc4cc(C(F)(F)F)c(OCc5ccc(Cl)cn5)nc4C3)n(C[C@@H]3CCO3)c2c1` [Compound I-263], the Emax amounted to 105% and the EC50 was determined as 8800 pM.

For `O=C(O)c1ccc2nc(CN3CCc4cc(C(F)(F)F)c(OCc5ccc(Cl)cc5)nc4C3)n(C[C@@H]3CCO3)c2c1` [Compound I-264], the Emax came out at 121% and the EC50 was found to be 2360 pM.

Regarding `Cc1ccc(COc2nc3c(cc2C(F)(F)F)CCN(Cc2nc4ccc(C(=O)O)cc4n2C[C@@H]2CCO2)C3)cc1` [Compound I-265], the maximum response (Emax) was 100% and a half-maximal effect (EC50) was put at 3180 pM.

Consider `O=C(O)c1ccc2nc(CN3CCc4cc(C(F)(F)F)c(OCc5ccc(C6CC6)cc5)nc4C3)n(C[C@@H]3CCO3)c2c1` [Compound I-266], for which the Emax was determined as 111% and the EC50 was 4040 pM.

For the compound `COc1cc(Cl)ccc1COc1nc2c(cc1C(F)(F)F)CCN(Cc1nc3ccc(C(=O)O)cc3n1C[C@@H]1CCO1)C2` [Compound I-267], the Emax stood at 112% and the EC50 worked out at 861 pM.

Consider `O=C(O)c1ccc2nc(CN3CCc4cc(C(F)(F)F)c(OCc5ccc(F)cc5F)nc4C3)n(C[C@@H]3CCO3)c2c1` [Compound I-268], for which the Emax stood at 108% and the EC50 is 1970 pM.

Turning to `O=C(O)c1ccc2nc(CN3CCc4cc(C(F)(F)F)c(OCc5ccc(Cl)cc5Cl)nc4C3)n(C[C@@H]3CCO3)c2c1` [Compound I-269], the Emax amounted to 109% and the EC50 was 1160 pM.

With `O=C(O)c1ccc2nc(CN3CCc4cc(C(F)(F)F)c(OCc5ccc(OC(F)F)cc5F)nc4C3)n(C[C@@H]3CCO3)c2c1` [Compound I-270], the Emax came to 116% and the EC50 amounted to 690 pM.

With `N#Cc1ccc(COc2nc3c(cc2C(F)(F)F)CCN(Cc2nc4ccc(C(=O)O)cc4n2C[C@@H]2CCO2)C3)c(F)c1` [Compound I-271], the Emax is 118% and a half-maximal response (EC50) required 1660 pM.

Turning to `O=C(O)c1ccc2nc(CN3CCc4cc(C(F)(F)F)c(OCc5ccc(F)cc5)nc4C3)n(C[C@@H]3CCO3)c2c1` [Compound I-272], the Emax amounted to 107% and the midpoint of the response, the EC50, lay at 3940 pM.

`C[C@H]1c2nc(OCc3ccc(Cl)cc3F)c(C(F)(F)F)cc2CCN1Cc1nc2c(F)cc(C(=O)O)cc2n1C[C@@H]1CCO1` [Compound I-273]: the Emax came to 121% and the EC50 worked out at 30.1 pM.

In the case of `COc1cc(C(=O)O)cc2c1nc(CN1CCc3cc(C(F)(F)F)c(OCc4ccc(Cl)cc4F)nc3[C@@H]1C)n2C[C@@H]1CCO1` [Compound I-274], the Emax stood at 120% and the EC50 stood at 13.4 pM.

As to `C[C@H]1c2nc(OCc3ccc(Cl)cc3F)c(C(F)(F)F)cc2CCN1Cc1nc2ccc(C(=O)O)nc2n1C[C@@H]1CCO1` [Compound I-275], the Emax came out at 107% and the response was half-maximal at 246 pM (EC50).

As for `C[C@H]1c2nc(OCc3ccc(Cl)cc3F)c(Cl)cc2CCN1Cc1nc2ccc(C(=O)O)cc2n1C[C@@H]1CCO1` [Compound I-276], the Emax came to 114% and it took 52.1 pM to reach a half-maximal effect (EC50).

As to `O=C(O)c1ccc2nc(CN3CCc4cc(C(F)(F)F)c(OCc5ccccc5Cl)nc4C3)n(C[C@@H]3CCO3)c2c1` [Compound I-277], the Emax came to 96.3% and the midpoint of the response, the EC50, lay at 3200 pM.

For `O=C(O)c1ccc2nc(CN3CCc4cc(C(F)(F)F)c(OCc5cc(F)c(Cl)cc5F)nc4C3)n(C[C@@H]3CCO3)c2c1` [Compound I-278], the Emax came to 109% and a half-maximal effect (EC50) was put at 806 pM.

For the compound `O=C(O)c1ccc2nc(CN3CCc4cc(C(F)(F)F)c(OCc5c(F)cc(Cl)cc5F)nc4C3)n(C[C@@H]3CCO3)c2c1` [Compound I-279], the Emax is 110%.

For `O=C(O)c1ccc2nc(CN3CCc4cc(C(F)(F)F)c(OCc5c(F)cc(F)cc5F)nc4C3)n(C[C@@H]3CCO3)c2c1` [Compound I-280], the Emax was 105% and it took 790 pM to reach a half-maximal effect (EC50).

As to `COc1cc(C(=O)O)cc2c1nc(CN1CCc3cc(C(F)(F)F)c(OCc4ccccc4Cl)nc3[C@@H]1C)n2C[C@@H]1CCO1` [Compound I-281], the Emax stood at 120% and the EC50 amounted to 7.39 pM.

For the compound `COc1cc(C(=O)O)cc2c1nc(CN1CCc3cc(C(F)(F)F)c(OCc4ccc(F)cc4F)nc3[C@@H]1C)n2C[C@@H]1CCO1` [Compound I-282], the Emax was 114% and it took 9.18 pM to reach a half-maximal effect (EC50).

`COc1cc(C(=O)O)cc2c1nc(CN1CCc3cc(C(F)(F)F)c(OCc4ccc(OC(F)F)cc4F)nc3[C@@H]1C)n2C[C@@H]1CCO1` [Compound I-283]: the Emax was found to be 118% and a half-maximal effect (EC50) was put at 28.3 pM.

`COc1cc(C(=O)O)cc2c1nc(CN1CCc3cc(C(F)(F)F)c(OCc4ccc(F)cc4)nc3[C@@H]1C)n2C[C@@H]1CCO1` [Compound I-284]: the Emax came out at 119% and the EC50 came to 16 pM.

Regarding `COc1cc(C(=O)O)cc2c1nc(CN1CCc3cc(C(F)(F)F)c(OCc4c(F)cc(F)cc4F)nc3[C@@H]1C)n2C[C@@H]1CCO1` [Compound I-285], the Emax is 130% and the EC50 was 8.62 pM.

As for `COc1ccc(COc2nc3c(cc2C(F)(F)F)CCN(Cc2nc4ccc(C(=O)O)nc4n2C[C@@H]2CCO2)[C@H]3C)cc1` [Compound I-286], the Emax came out at 115% and a half-maximal response (EC50) required 444 pM.
